From ChEMBL document CHEMBL4270669 (J Med Chem, 2018)
≈ marks a conversion by molar mass, not a printed value. Calls of active or inactive are those of the source. The rule behind the calls is not given here.

Legend:
[1] = molecular target: Phosphatidylinositol 4,5-bisphosphate 3-kinase catalytic subunit beta isoform (Homo sapiens, UniProt P42338)
Description: Inhibition of human PI3Kbeta (118 to 1070 residues) expressed in mammalian expression system by KINOMEscan assay

[2] = Ratio of drug level in Sprague-Dawley rat brain to plasma at 10 mg/kg, po administered as single dose; type: ADME, organism-based; details: read-out: BPR
[3] = molecular target: T1, Serine/threonine-protein kinase mTOR (Homo sapiens, UniProt P42345)
Description: Inhibition of human mTOR (1382 to 2549 residues) expressed in mammalian expression system by KINOMEscan assay

[4] = molecular target: T2, Phosphatidylinositol 4,5-bisphosphate 3-kinase catalytic subunit delta isoform (Homo sapiens, UniProt O00329)
T2 sequence (O00329 whole entry): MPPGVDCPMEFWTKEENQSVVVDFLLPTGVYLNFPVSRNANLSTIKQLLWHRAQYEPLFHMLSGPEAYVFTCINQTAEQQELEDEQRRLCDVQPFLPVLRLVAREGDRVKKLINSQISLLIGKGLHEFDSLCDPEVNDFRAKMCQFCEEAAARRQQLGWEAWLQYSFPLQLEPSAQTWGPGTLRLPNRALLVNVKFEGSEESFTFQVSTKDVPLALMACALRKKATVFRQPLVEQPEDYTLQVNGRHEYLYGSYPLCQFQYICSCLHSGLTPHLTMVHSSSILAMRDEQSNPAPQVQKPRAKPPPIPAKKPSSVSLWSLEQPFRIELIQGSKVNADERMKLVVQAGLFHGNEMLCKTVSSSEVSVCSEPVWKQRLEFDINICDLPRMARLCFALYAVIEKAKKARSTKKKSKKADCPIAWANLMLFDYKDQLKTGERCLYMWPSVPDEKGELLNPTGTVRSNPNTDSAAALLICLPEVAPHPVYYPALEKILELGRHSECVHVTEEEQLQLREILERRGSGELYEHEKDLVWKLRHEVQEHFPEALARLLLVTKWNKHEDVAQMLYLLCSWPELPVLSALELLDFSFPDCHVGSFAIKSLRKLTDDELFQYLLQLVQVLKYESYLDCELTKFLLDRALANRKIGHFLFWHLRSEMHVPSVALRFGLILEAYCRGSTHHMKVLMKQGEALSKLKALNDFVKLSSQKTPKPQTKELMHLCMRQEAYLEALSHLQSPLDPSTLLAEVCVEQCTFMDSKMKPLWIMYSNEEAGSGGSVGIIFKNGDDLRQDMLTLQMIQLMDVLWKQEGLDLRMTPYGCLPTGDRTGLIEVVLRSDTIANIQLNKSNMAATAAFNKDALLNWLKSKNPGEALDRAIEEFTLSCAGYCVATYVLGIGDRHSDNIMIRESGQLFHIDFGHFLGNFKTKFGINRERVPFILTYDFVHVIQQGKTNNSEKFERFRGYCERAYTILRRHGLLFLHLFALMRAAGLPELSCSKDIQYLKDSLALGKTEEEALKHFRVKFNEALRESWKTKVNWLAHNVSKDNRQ
Description: Inhibition of human PI3Kdelta (108 to 1044 residues) expressed in mammalian expression system by KINOMEscan assay

[5] = molecular target: Phosphatidylinositol 4-kinase beta (Homo sapiens, UniProt Q9UBF8)
Description: Inhibition of human PI4Kbeta (1 to 828 residues) expressed in mammalian expression system by KINOMEscan assay

Mus musculus [6] = assay: Increase in insulin levels in C57BL/6JRj mouse plasma at 50 mg/kg, po administered as single dose; type: functional, organism-based
Rattus norvegicus [7] = assay: Increase in insulin levels in Sprague-Dawley rat plasma at 10 mg/kg, po administered as single dose; type: functional, organism-based
[8] = molecular target: Phosphatidylinositol 3-kinase catalytic subunit type 3 (Homo sapiens, UniProt Q8NEB9); assay: Inhibition of human VPS34 (282 to 879 residues) expressed in mammalian expression system by KINOMEscan assay
[9] = Drug uptake in Sprague-Dawley rat brain at 10 mg/kg, po administered as single dose after 4 hrs; type: ADME, organism-based; details: read-out: Drug uptake
[10] = molecular target: Phosphatidylinositol 4,5-bisphosphate 3-kinase catalytic subunit gamma isoform (Homo sapiens, UniProt P48736)
Description: Inhibition of human PI3Kgamma (144 to 1102 residues) expressed in mammalian expression system by KINOMEscan assay

[11] = molecular target: T3, Phosphatidylinositol 4,5-bisphosphate 3-kinase catalytic subunit alpha isoform (Homo sapiens, UniProt P42336)
Description: Inhibition of human PI3Kalpha (108 to 1068 residues) expressed in mammalian expression system by KINOMEscan assay

Rattus norvegicus [12] = assay: Increase in glucose levels in Sprague-Dawley rat plasma at 10 mg/kg, po administered as single dose; type: functional, organism-based
[13] = Ratio of drug level in C57BL/6JRj mouse brain to plasma at 50 mg/kg, po administered as single dose; type: ADME, organism-based; details: read-out: BPR
[14] = Cmax in Sprague-Dawley rat plasma at 10 mg/kg, po administered as single dose after 30 mins; type: ADME, organism-based; parameters: dose 10 mg/kg, route oral
[15] = Thermodynamic solubility of the compound in FeSSIF; type: physicochemical; details: read-out: Therm_solubility
OVCAR-3 = assay: Antitumor activity against human OVCAR3 cells xenografted in BALB/C nude mouse assessed as tumor growth inhibition at 50 mg/kg, po administered daily for 28 days relative to control; type: functional; details: OVCAR-3, po, 672 h, read-out: TGI
[16] = AUC in Sprague-Dawley rat brain at 10 mg/kg, po administered as single dose after 8 hrs; type: ADME, organism-based; parameters: dose 10 mg/kg, time < 8 hr, route oral; details: in vivo
[17] = AUC in Sprague-Dawley rat plasma at 10 mg/kg, po administered as single dose after 8 hrs; type: ADME, organism-based; parameters: dose 10 mg/kg, time < 8 hr, route oral
[18] = Drug uptake in Sprague-Dawley rat brain at 10 mg/kg, po administered as single dose measured at >8 hrs; type: ADME, organism-based; details: read-out: Drug uptake
[19] = Clearance in rat hepatocytes assessed per million cells; type: ADME, cell-based, Hepatocyte; details: read-out: CLH
[20] = Metabolic stability in mouse liver microsomes assessed as compound remaining after 30 mins; type: ADME, microsome; details: read-out: Stability
[21] = molecular target: COX1 (Prostaglandin G/H synthase 1) (Homo sapiens, UniProt P23219); assay: Inhibition of recombinant human COX1 at 10 uM using arachidonic acid/ADHP as substrate by fluorometric method relative to control; details: recombinant human COX1, probe arachidonic acid/ADHP
[22] = molecular target: T1, Serine/threonine-protein kinase mTOR; remark: listed apart in the source
[23] = Half life in rat hepatocytes; type: ADME, cell-based, Hepatocyte
[24] = Clearance in mouse hepatocytes assessed per million cells; type: ADME, cell-based, Hepatocyte; details: read-out: CLH
Mus musculus [25] = assay: Toxicity in BALB/C nude mouse xenografted with human OVCAR3 cells assessed as body weight loss at 50 mg/kg, po administered daily for 28 days relative to control; type: organism-based; details: in vivo, 672 h
[26] = Toxicity in rat after 14 days; type: organism-based; details: in vivo
[27] = molecular target: PDE4D2 (3',5'-cyclic-AMP phosphodiesterase 4D) (Homo sapiens, UniProt Q08499); assay: Inhibition of recombinant human PDE4D2 at 10 uM using [3H]cAMP/cAMP by scintillation counting method relative to control; details: recombinant human PDE4D2, probe [3H]cAMP/cAMP
[28] = molecular target: T3, Phosphatidylinositol 4,5-bisphosphate 3-kinase catalytic subunit alpha isoform; remark: listed apart in the source
[29] = Half life in mouse hepatocytes; type: ADME, cell-based, Hepatocyte
[30] = Thermodynamic solubility of the compound at pH 1.2; type: physicochemical; details: buffer, read-out: Therm_solubility
[31] = Inhibition of TORC1 in human A2058 cells assessed as decrease in S6 phosphorylation at Ser235/236 after 1 hr by Western blot analysis; type: cell-based; details: A2058, 1 h
[32] = Thermodynamic solubility of the compound at pH 6.8; type: physicochemical; details: buffer, read-out: Therm_solubility
[33] = Lipophilicity, log D of the compound at pH 7.4; type: physicochemical; details: buffer
[34] = Toxicity in mouse; type: organism-based; details: in vivo
[35] = Unbound fraction in rat brain; type: ADME, tissue-based
A 172 = assay: Growth inhibition of human A172 cells after 72 hrs by ATPlite based assay; type: functional; details: A 172, 72 h, pooled result: one value given for 8 cell lines, strains, targets or settings
[36] = molecular target: Voltage-gated inwardly rectifying potassium channel KCNH2 (Homo sapiens, UniProt Q12809); assay: Binding affinity to human ERG expressed in CHO cell membranes at 10 uM by radioligand displacement assay
[37] = Thermodynamic solubility of the compound in FaSSIF; type: physicochemical; details: read-out: Therm_solubility
[38] = Cmax in C57BL/6JRj mouse brain at 50 mg/kg, po administered as single dose; type: ADME, organism-based; parameters: dose 50 mg/kg, route oral
[39] = Thermodynamic solubility of the compound at pH 4.5; type: physicochemical; details: buffer, read-out: Therm_solubility
[40] = Inhibition of TORC2 in human A2058 cells assessed as decrease in PKB/Akt phosphorylation at Ser473 after 1 hr by Western blot analysis; type: cell-based; details: A2058, 1 h
[41] = Cmax in Sprague-Dawley rat brain at 10 mg/kg, po administered as single dose after 30 mins; type: ADME, organism-based; parameters: dose 10 mg/kg, route oral
[42] = Metabolic stability in rat liver microsomes assessed as compound remaining after 30 mins; type: ADME, microsome; details: read-out: Stability
[43] = Apparent permeability of the compound by PAMPA; type: ADME
Mus musculus [44] = assay: Increase in glucose levels in C57BL/6JRj mouse plasma at 50 mg/kg, po administered as single dose; type: functional, organism-based
Mus musculus [45] = assay: Antiepileptic activity in Tsc1flox/flox/GFAP-Cre conditional knocked out mouse model assessed as reduction in seizures at 100 mg/kg, po qd treated from days 21 to 53 postnatal by electroencephalography; type: functional, organism-based

T3 sequence (P42336 whole entry, canonical isoform): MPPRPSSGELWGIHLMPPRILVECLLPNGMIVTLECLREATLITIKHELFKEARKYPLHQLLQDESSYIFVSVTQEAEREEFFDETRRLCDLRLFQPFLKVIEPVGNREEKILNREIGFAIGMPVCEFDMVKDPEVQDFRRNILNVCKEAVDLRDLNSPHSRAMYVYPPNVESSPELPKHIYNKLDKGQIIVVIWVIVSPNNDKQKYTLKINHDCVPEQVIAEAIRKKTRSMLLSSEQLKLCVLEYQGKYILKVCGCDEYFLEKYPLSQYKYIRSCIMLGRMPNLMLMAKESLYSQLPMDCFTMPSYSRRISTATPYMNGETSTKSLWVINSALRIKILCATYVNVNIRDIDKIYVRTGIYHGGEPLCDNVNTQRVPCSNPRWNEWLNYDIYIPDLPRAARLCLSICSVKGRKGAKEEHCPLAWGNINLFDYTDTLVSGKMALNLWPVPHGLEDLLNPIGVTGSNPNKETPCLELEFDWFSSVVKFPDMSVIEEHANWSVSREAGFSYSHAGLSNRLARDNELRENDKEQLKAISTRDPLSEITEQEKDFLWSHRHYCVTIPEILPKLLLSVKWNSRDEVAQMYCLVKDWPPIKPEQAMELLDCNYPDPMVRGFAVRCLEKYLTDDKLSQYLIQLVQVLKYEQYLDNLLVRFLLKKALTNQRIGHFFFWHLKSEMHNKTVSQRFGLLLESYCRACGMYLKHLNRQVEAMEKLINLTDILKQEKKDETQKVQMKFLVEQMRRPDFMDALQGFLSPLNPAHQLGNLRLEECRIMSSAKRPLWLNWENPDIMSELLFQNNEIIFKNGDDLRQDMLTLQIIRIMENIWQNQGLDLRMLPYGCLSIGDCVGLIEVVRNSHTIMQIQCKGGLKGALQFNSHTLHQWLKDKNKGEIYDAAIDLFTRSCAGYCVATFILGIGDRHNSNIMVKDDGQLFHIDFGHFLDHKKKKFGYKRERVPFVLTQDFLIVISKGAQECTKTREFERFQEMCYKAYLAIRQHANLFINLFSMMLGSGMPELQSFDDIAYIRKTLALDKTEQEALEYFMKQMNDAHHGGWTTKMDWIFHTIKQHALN
Chain of Phosphatidylinositol 4,5-bisphosphate 3-kinase catalytic subunit gamma isoform (P48736 whole entry, canonical isoform): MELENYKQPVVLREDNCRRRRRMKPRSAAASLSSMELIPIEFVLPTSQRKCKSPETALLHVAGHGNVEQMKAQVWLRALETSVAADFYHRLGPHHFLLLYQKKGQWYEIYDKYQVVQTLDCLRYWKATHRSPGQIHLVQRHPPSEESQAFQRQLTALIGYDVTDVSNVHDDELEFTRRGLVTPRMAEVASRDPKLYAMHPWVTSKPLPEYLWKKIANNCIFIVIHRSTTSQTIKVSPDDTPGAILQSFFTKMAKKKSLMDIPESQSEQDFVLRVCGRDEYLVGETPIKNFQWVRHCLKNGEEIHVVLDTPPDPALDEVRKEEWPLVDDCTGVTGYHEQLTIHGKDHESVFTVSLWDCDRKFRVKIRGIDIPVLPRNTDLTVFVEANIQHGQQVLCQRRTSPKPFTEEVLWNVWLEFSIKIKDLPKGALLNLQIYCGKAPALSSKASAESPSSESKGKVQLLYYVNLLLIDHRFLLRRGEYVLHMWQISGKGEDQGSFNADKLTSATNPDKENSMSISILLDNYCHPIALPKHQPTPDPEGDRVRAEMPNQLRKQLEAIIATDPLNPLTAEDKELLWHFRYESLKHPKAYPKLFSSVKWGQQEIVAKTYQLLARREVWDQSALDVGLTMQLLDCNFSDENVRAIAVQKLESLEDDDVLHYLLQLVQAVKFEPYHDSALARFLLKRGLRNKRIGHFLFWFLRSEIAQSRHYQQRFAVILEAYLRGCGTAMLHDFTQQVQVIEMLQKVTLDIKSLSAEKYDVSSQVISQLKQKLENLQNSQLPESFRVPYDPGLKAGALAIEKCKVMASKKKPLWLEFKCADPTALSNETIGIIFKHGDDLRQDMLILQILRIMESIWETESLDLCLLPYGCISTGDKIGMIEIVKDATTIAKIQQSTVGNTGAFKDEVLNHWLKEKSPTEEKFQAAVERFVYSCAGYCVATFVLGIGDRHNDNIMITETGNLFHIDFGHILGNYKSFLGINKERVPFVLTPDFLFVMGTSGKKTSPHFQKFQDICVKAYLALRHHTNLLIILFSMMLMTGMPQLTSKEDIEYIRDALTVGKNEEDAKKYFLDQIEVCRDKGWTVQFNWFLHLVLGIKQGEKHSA
Chain of Phosphatidylinositol 4,5-bisphosphate 3-kinase catalytic subunit beta isoform (P42338 whole entry, canonical isoform): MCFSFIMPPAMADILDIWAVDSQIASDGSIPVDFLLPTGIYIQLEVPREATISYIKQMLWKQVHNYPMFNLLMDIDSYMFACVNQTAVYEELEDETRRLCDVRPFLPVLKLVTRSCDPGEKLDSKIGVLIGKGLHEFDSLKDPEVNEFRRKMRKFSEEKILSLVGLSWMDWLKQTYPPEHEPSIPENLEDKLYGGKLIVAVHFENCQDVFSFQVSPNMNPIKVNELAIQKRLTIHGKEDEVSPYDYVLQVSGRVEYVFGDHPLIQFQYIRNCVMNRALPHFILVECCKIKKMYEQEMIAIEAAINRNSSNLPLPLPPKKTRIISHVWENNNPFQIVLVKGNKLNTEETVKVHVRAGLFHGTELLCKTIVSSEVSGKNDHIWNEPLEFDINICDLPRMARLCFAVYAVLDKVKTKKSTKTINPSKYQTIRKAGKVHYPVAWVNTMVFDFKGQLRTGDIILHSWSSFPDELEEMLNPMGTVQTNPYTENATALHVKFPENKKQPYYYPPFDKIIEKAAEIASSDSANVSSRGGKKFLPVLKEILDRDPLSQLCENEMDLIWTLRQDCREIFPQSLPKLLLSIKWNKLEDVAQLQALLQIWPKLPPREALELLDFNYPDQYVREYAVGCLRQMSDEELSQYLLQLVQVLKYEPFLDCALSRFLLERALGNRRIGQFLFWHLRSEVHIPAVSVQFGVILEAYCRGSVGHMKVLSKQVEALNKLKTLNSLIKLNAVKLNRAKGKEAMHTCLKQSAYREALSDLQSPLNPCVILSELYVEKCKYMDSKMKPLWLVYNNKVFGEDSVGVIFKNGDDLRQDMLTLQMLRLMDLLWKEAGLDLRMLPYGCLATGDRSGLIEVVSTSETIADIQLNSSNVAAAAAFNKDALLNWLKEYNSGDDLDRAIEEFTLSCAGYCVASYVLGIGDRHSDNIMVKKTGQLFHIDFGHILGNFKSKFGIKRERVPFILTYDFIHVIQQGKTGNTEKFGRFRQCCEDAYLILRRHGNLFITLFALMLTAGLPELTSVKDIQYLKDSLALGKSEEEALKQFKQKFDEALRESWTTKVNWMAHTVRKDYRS
Chain of Phosphatidylinositol 4-kinase beta (Q9UBF8 whole entry): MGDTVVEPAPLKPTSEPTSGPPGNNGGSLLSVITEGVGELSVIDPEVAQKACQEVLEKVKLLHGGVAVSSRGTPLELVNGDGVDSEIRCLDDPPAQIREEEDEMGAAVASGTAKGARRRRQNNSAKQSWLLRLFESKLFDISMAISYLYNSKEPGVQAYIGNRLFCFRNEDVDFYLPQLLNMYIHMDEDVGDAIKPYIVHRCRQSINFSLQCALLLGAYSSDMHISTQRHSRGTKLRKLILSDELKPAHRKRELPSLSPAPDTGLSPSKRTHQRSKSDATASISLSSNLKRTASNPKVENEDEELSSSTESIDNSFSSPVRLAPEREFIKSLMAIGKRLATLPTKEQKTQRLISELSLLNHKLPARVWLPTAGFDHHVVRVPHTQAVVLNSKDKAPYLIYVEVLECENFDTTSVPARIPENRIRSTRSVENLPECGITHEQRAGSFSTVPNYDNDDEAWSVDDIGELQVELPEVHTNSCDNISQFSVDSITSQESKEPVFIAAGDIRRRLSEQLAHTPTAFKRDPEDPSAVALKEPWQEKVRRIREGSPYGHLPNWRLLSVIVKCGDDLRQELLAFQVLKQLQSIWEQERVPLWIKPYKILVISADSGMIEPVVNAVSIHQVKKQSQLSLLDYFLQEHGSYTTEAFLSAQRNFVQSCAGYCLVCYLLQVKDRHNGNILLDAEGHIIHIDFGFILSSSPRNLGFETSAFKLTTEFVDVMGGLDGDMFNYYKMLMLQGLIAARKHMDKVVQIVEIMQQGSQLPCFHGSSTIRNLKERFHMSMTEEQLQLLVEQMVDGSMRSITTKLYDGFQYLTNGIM
Chain of Phosphatidylinositol 3-kinase catalytic subunit type 3 (Q8NEB9 whole entry, the tested form may be a part): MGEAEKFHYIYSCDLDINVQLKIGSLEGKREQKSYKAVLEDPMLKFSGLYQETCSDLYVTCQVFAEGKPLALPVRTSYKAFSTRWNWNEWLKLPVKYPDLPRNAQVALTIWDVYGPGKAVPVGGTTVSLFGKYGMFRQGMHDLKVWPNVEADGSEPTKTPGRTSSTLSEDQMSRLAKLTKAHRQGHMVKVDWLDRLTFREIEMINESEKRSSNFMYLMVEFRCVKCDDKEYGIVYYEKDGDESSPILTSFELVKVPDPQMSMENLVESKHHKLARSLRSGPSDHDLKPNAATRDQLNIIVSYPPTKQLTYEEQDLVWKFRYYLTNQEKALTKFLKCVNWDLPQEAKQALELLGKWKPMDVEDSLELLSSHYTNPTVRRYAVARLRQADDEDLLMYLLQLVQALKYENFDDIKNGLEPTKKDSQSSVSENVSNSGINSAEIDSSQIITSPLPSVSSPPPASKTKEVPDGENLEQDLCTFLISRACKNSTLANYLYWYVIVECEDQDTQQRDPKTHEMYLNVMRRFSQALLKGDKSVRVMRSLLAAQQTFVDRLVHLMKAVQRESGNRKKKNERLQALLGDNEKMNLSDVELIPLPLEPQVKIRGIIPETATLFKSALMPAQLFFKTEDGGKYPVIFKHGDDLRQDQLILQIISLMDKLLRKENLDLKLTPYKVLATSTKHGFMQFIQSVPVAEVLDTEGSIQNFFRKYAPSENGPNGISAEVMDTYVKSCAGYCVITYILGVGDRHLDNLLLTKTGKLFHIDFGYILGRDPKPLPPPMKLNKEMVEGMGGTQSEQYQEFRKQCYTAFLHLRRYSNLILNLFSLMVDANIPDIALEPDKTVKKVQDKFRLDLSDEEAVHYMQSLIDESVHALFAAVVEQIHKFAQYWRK

**Q.** For CCC(CC)n1cnc2c(-c3cnc(N)cn3)nc(N3CC4CCC(C3)O4)nc21, which Kd [1] is on record?
**A.** 20000 nM

**Q.** And the Kp [2]?
**A.** 0.178

**Q.** And the Kd [3]?
**A.** 0.85 nM

**Q.** And the Kd [4]?
**A.** > 30000 nM

**Q.** What about the Kd [5] of the same compound?
**A.** > 30000 nM

**Q.** What about the Activity (Mus musculus [6]) of the same compound?
**A.** inactive

**Q.** And the Activity (Rattus norvegicus [7])?
**A.** inactive

**Q.** What about the Kd [8] of the same compound?
**A.** 8300 nM

**Q.** And the concentration at 4 h [9]?
**A.** 170 ng/g

**Q.** And the Kd [10]?
**A.** 22000 nM

**Q.** What about the Kd [11] of the same compound?
**A.** 2700 nM

**Q.** For Nc1cc(C(F)F)c(-c2nc(N3C4CCC3COC4)nc(N3C4CCC3COC4)n2)cn1, which Activity (Rattus norvegicus [12]) is on record?
**A.** inactive

**Q.** What about the Kp [13] of the same compound?
**A.** 1.6

**Q.** And the Cmax [14]?
**A.** 1360 ng/mL

**Q.** What about the solubility thermodynamic [15] of the same compound?
**A.** 335 µM (≈ 149 µg/mL)

**Q.** What about the inhibition in vivo at 50 mg/kg (OVCAR-3) of the same compound?
**A.** > 50%

**Q.** And the AUC [16]?
**A.** 404 µg·h/g

**Q.** And the AUC at 8 h [17]?
**A.** 409 µg·h/mL

**Q.** And the concentration at 8 h [18]?
**A.** 900 ng/g

**Q.** And the hepatocyte CLint [19]?
**A.** 1.85 µL/min/1e6 cells

**Q.** And the remaining at 0.5 h [20]?
**A.** 70.2%

**Q.** What about the inhibition at 10 µM [21] of the same compound?
**A.** < 50%

**Q.** What about the Ki [22] of the same compound?
**A.** 10.8 nM

**Q.** What about the Kd [1] of the same compound?
**A.** 22000 nM

**Q.** And the Kp [2]?
**A.** 1

**Q.** And the half-life [23]?
**A.** 7.81 h

**Q.** And the Kd [3]?
**A.** 0.27 nM

**Q.** And the hepatocyte CLint [24]?
**A.** 2.67 µL/min/1e6 cells

**Q.** And the Activity (Mus musculus [25])?
**A.** Non-Toxic

**Q.** And the MTD at 336 h [26]?
**A.** 30 mg/kg

**Q.** What about the inhibition at 10 µM [27] of the same compound?
**A.** < 50%

**Q.** What about the Ki [28] of the same compound?
**A.** 4200 nM

**Q.** What about the half-life [29] of the same compound?
**A.** 5.41 h

**Q.** What about the solubility thermodynamic [30] of the same compound?
**A.** 20000 µM (≈ 8890 µg/mL)

**Q.** And the Kd [4]?
**A.** 23000 nM

**Q.** What about the Kd [5] of the same compound?
**A.** > 30000 nM

**Q.** And the IC50 [31]?
**A.** 85.2 nM

**Q.** What about the solubility thermodynamic [32] of the same compound?
**A.** 33.7 µM (≈ 15 µg/mL)

**Q.** And the logD [33]?
**A.** 3.47

**Q.** And the MTD [34]?
**A.** 150 mg/kg

**Q.** What about the fraction unbound [35] of the same compound?
**A.** 0.03

**Q.** What about the Activity (Mus musculus [6]) of the same compound?
**A.** inactive

**Q.** And the Activity (Rattus norvegicus [7])?
**A.** inactive

**Q.** And the IC50 (A 172)?
**A.** 920 nM

**Q.** And the Kd [8]?
**A.** 2750 nM

**Q.** And the “inhibition (INH)” value [36]?
**A.** Not Active

**Q.** And the solubility thermodynamic [37]?
**A.** 66 µM (≈ 29.4 µg/mL)

**Q.** And the Cmax [38]?
**A.** 7710 ng/g

**Q.** And the solubility thermodynamic [39]?
**A.** 78.2 µM (≈ 34.8 µg/mL)

**Q.** What about the IC50 [40] of the same compound?
**A.** 190 nM

**Q.** What about the Cmax [41] of the same compound?
**A.** 1310 ng/g

**Q.** And the remaining at 0.5 h [42]?
**A.** 108%

**Q.** And the Kd [10]?
**A.** 18000 nM

**Q.** And the Papp [43]?
**A.** 5.22 ×10⁻⁶ cm/s

**Q.** What about the Kd [11] of the same compound?
**A.** 1000 nM

**Q.** And the Activity (Mus musculus [44])?
**A.** Active

**Q.** And the Activity (Mus musculus [45])?
**A.** Active
